The values below are quoted from earlier work in patent publication EP4603079A1, “COMPOSITION COMPRISING A PEPTIDE HAVING AN ISOELECTRIC POINT OF LESS THAN 6.5 AND A CO-POLYAMINO ACID BEARING CARBOXYLATE CHARGES AND HYDROPHOBIC RADICALS” (Adocia, priority 2024, dated 2025).

In the data set the target is T1, amylin receptor 3 (AMYR3) (Homo sapiens, UniProt O60896+P30988).
T1 sequence (P30988 25-474): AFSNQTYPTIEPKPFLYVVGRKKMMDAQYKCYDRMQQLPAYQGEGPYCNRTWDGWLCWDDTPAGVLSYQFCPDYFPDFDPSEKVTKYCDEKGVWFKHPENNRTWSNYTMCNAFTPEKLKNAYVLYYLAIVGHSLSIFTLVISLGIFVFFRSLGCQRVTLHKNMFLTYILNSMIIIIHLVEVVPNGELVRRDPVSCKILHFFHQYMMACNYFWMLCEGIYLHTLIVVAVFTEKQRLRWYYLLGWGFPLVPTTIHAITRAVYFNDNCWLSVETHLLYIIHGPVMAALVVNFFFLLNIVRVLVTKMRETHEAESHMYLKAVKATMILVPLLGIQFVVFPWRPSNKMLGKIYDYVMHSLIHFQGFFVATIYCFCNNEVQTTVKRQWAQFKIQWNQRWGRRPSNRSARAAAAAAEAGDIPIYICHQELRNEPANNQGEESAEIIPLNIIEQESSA
T1 sequence (O60896 24-148): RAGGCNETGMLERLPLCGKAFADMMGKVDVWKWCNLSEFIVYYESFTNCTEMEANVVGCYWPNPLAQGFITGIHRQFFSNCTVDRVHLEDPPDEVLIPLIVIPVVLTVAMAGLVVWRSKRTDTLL
The note with it: procedure of WO2022129526, Assay 2; Tables 4b and 4c there; read-out: EC50value.

Take “N-alpha-[(S)-4-Carboxy-4-(19-carboxynonadecanoylamino)butyryl]-[Glu14,Arg17,Pro37]-pramlintide [cagrilintide]”: the EC50 is about 11 pM.
